According to US20240294508A1, “RIP1 MODULATORS INCLUDING AZETIDINE CYCLIC UREAS, PREPARATIONS, AND USES THEREOF” (SIRONAX LTD., priority 2021, published 2024):

Tested on: HT-29 cells
Test: HT29 cells 0FBS assay in vitro: TNF-α/SMAC mimetic/zVAD-FMK induced necroptosis, CellTiter-Glo cell viability (RIP1 inhibitory activity)
Format: cell-based
Conditions: Homo sapiens, FBS free medium, TNF-α (10 ng/ml) + SMAC mimetic (6 uM) + zVAD-FMK (10 μM), 20 hours, geometric mean EC50
Description: Protocol for HT29 Cells 0FBS Assay In Vitro
• Cell line: HT-29 (ATCC® HTB-38™) • Culture medium: McCOY's 5A, Gibco, Cat No. 16600-082 • FBS, Gibco, Cat No. 10099-141C • Trypsin: Gibco, Cat No. 25200-056 • DMSO: Sigma, Cat No. 67-68-5, 1L • Assay plate: Corning #3903 • Compound dilution plate: Corning #3357 • Inducers: TNFα, GenScript, Cat No. Z01001-50, • SmacM, Cat. No., HY-15989, MedChemExpress (MCE) • Z_VAD FMK, TargetMol, T6013 • Cell Titer-Glo® Luminescent Cell Viability Assay Kit: Promega, Cat No. G7573 • EnVision: PerkinElmer, 2105-0010
2. Cell Seeding of HT-29 Cells
1) HT-29 cells were checked every day to make sure they are healthy and growing as expected. They were split sub-culturing when were approximately 80% confluent.
2) First pre-warm the culture medium of McCOY's 5A medium (Gibco, Cat No. 16600-082) with 10% FBS (Gibco, Cat No. 10099-141C) in 37° C. water bath for at least 30 min.
3) Growing cells to desired level of confluency 80% in a T75 flask, aspirate the medium, and wash with warm PBS two times.
4) Add 2-3 ml fresh warm trypsin (Gibco, Cat No. 25200-056) solution. Transfer the flask to a 37° C. incubator.
5) After 5 minutes, tap the side of the flask, and examine the flask under a microscope for lifting. If necessary, return the cells to the incubator for an additional 5-10 minutes, with occasional tapping, until lifting is complete.
6) Quickly neutralize the trypsin reaction by adding 6-9 ml cell culture medium, then transfer the cells to sterile 15 ml conical tubes. Pellet the cells by centrifugation at 300×g for 7 minutes, then decant the supernatant.
7) Resuspend the cells in fresh cell culture medium. Do cell counting with hemocytometer.
8) Seed 100 μl of 5,000 cells into each well of the sterile 96-well cell culture plate (Corning 3903) and culture overnight at 37° C. with 5% CO2.
3. Compounds Titration and Treatment of HT-29 Cells
1) All batches of compounds (CPDs0 (e.g., compound 1-169) were dissolved in DMSO (Dimethyl sulfoxide) as 20 mM stock solution.
2) Take 3 ul 20 mM stock solution of CPDs to […] DMSO and mix well, continue the titration ratio of 1:3 (20 ul CPDs+40 ul DMSO), e.g., to give solutions of CPDS at 6.6 mM, 2.2 mM, etc., till the 10 points end.
3) Take out assay plates with HT-29 cells from incubator, remove all culture medium then wash 1 time with 1×PBS, and change fresh McCOY's 5A medium of FBS free with a cocktail of TNF-α (10 ng/ml), the SMAC mimetic (6 uM) and zVAD-FMK (10 μM) to stimulate the HT-29 cells to increase pRIPK1 levels and necroptosis.
4) Add 0.5 μL of the diluted compound to the corresponding 96-well assay plates.
5) Incubate the assay plates for 20 hours at 37° C. with 5% CO2.
4. Performing Cell Viability Detection of HT-29 Cells after Treated with Compounds
1) The CellTiter-Glo® Luminescent Cell Viability Assay was employed to detect the ATP levels of viable HT-29 cells.
2) Equilibrate the CellTiter-Glo® buffer and the lyophilized substrate to room temperature prior to use.
3) Resuspend the CellTiter-Glo® substrate with CellTiter-Glo® buffer, mix by gently vortexing to obtain a homogeneous solution.
4) Pipette 20 μl the enzyme/substrate mixture by multi-channel pipette into the 96-well assay plates from step 5) under the Compounds titration and treatment stage.
5) Place the plates on an orbital shaker and mix the contents for 3 minutes to induce cell lysis.
6) Then allow the plates to incubate at room temperature for 10 minutes to stabilize luminescent signal.
7) Read and record luminescence signal with EnVision.
8) The geometric mean EC50 of the compounds were calculated from 10 points response dose with duplicate. In Table 2, activity is provided as follows: +++=0.1 nM≤EC50<100 nM; ++=100 nM≤EC5 1000 nM; […].

SMILES	EC50 [nM]
Cc1nsc(C)c1-c1cc(OC2CN(C(=O)N3N=CC[C@H]3c3cc(F)cc(C#N)c3)C2)c(F)cn1 [Compound 31, (S)-3-(1-(3-((2-(3,5-dimethylisothiazol-4-yl)-5-fluoropyridin-4-yl)oxy)azetidine-1-carbonyl)-4,5-dihydro-1H-pyrazol-5-yl)-5-fluorobenzonitrile]	0.1 to 100
Cn1ncc(Cl)c1-c1ncc(F)c(OC2CN(C(=O)N3N=CC[C@H]3c3cncc(F)c3)C2)n1 [Compound 32, (S)-(3-((2-(4-chloro-1-methyl-1H-pyrazol-5-yl)-5-fluoropyrimidin-4-yl)oxy)azetidin-1-yl)(5-(5-fluoropyridin-3-yl)-4,5-dihydro-1H-pyrazol-1-yl)methanone]	0.1 to 100
Cc1cnn(C)c1-c1ncc(F)c(OC2CN(C(=O)N3N=CC[C@H]3c3cncc(C#N)c3)C2)n1 [Compound 33, (S)-5-(1-(3-((2-(1,4-dimethyl-1H-pyrazol-5-yl)-5-fluoropyrimidin-4-yl)oxy)azetidine-1-carbonyl)-4,5-dihydro-1H-pyrazol-5-yl)nicotinonitrile]	0.1 to 100
Cn1ncc(C#N)c1-c1ccc(F)c(OC2CN(C(=O)N3N=CC[C@H]3c3cncc(F)c3)C2)n1 [Compound 34, (S)-5-(5-fluoro-6-((1-(5-(5-fluoropyridin-3-yl)-4,5-dihydro-1H-pyrazole-1-carbonyl)azetidin-3-yl)oxy)pyridin-2-yl)-1-methyl-1H-pyrazole-4-carbonitrile]	0.1 to 100
Cn1nc(N)cc1-c1cc(OC2CN(C(=O)N3N=CC[C@H]3c3cc(F)cc(C#N)c3)C2)c(F)cn1 [Compound 35, (S)-3-(1-(3-((2-(3-amino-1-methyl-1H-pyrazol-5-yl)-5-fluoropyridin-4-yl)oxy)azetidine-1-carbonyl)-4,5-dihydro-1H-pyrazol-5-yl)-5-fluorobenzonitrile]	0.1 to 100
Cn1ccnc1-c1cc(OC2CN(C(=O)N3N=CC[C@H]3c3cc(F)cc(C#N)c3)C2)c(F)cn1 [Compound 36, (S)-3-fluoro-5-(1-(3-((5-fluoro-2-(1-methyl-1H-imidazol-2-yl)pyridin-4-yl)oxy)azetidine-1-carbonyl)-4,5-dihydro-1H-pyrazol-5-yl)benzonitrile]	0.1 to 100
Cn1ccnc1-c1cc(OC2CN(C(=O)N3N=CC[C@H]3c3cncc(F)c3)C2)c(F)cn1 [Compound 37, (S)-(3-((5-fluoro-2-(1-methyl-1H-imidazol-2-yl)pyridin-4-yl)oxy)azetidin-1-yl)(5-(5-fluoropyridin-3-yl)-4,5-dihydro-1H-pyrazol-1-yl)methanone]	0.1 to 100
Cn1ccnc1-c1cc(OC2CN(C(=O)N3N=CC[C@H]3c3cncc(C#N)c3)C2)c(F)cn1 [Compound 38, (S)-5-(1-(3-((5-fluoro-2-(1-methyl-1H-imidazol-2-yl)pyridin-4-yl)oxy)azetidine-1-carbonyl)-4,5-dihydro-1H-pyrazol-5-yl)nicotinonitrile]	100 to 1000
Cc1ccc(C)n1-c1cc(OC2CN(C(=O)N3N=CC[C@H]3c3cc(F)cc(C#N)c3)C2)c(F)cn1 [Compound 39, (S)-3-(1-(3-((2-(2,5-dimethyl-1H-pyrrol-1-yl)-5-fluoropyridin-4-yl)oxy)azetidine-1-carbonyl)-4,5-dihydro-1H-pyrazol-5-yl)-5-fluorobenzonitrile]	0.1 to 100
Cn1ncc(C#N)c1-c1ccc(F)c(OC2CN(C(=O)N3N=CC[C@H]3c3cc(F)cc(C#N)c3)C2)n1 [Compound 40, (S)-5-(6-((1-(5-(3-cyano-5-fluorophenyl)-4,5-dihydro-1H-pyrazole-1-carbonyl)azetidin-3-yl)oxy)-5-fluoropyridin-2-yl)-1-methyl-1H-pyrazole-4-carbonitrile]	0.1 to 100
Cn1ncc(C#N)c1-c1ccc(F)c(OC2CN(C(=O)N3N=CC[C@H]3c3cncc(C#N)c3)C2)n1 [Compound 41, (S)-5-(1-(3-((6-(4-cyano-1-methyl-1H-pyrazol-5-yl)-3-fluoropyridin-2-yl)oxy)azetidine-1-carbonyl)-4,5-dihydro-1H-pyrazol-5-yl)nicotinonitrile]	0.1 to 100
Cc1cnn(C)c1-c1cc(OC2CN(C(=O)N3N=CC[C@H]3c3cncc(C#N)c3)C2)c(F)cn1 [Compound 42, (S)-5-(1-(3-((2-(1,4-dimethyl-1H-pyrazol-5-yl)-5-fluoropyridin-4-yl)oxy)azetidine-1-carbonyl)-4,5-dihydro-1H-pyrazol-5-yl)nicotinonitrile]	0.1 to 100
Cn1ncc(Cl)c1-c1cc(OC2CN(C(=O)N3N=CC[C@H]3c3cncc(F)c3)C2)c(F)cn1 [Compound 43, (S)-(3-((2-(4-chloro-1-methyl-1H-pyrazol-5-yl)-5-fluoropyridin-4-yl)oxy)azetidin-1-yl)(5-(5-fluoropyridin-3-yl)-4,5-dihydro-1H-pyrazol-1-yl) methanone]	0.1 to 100
Cn1ncc(Cl)c1-c1cc(OC2CN(C(=O)N3N=CC[C@H]3c3cncc(C#N)c3)C2)c(F)cn1 [Compound 44]	0.1 to 100
Cn1ncc(F)c1-c1cc(OC2CN(C(=O)N3N=CC[C@H]3c3cncc(F)c3)C2)c(F)cn1 [Compound 45, (S)-(3-((5-fluoro-2-(4-fluoro-1-methyl-1H-pyrazol-5-yl)pyridin-4-yl)oxy)azetidin-1-yl)(5-(5-fluoropyridin-3-yl)-4,5-dihydro-1H-pyrazol-1-yl) methanone]	0.1 to 100
Cn1ncc(F)c1-c1cc(OC2CN(C(=O)N3N=CC[C@H]3c3cncc(C#N)c3)C2)c(F)cn1 [Compound 46, (S)-5-(1-(3-((5-fluoro-2-(4-fluoro-1-methyl-1H-pyrazol-5-yl)pyridin-4-yl)oxy)azetidine-1-carbonyl)-4,5-dihydro-1H-pyrazol-5-yl)nicotinonitrile]	0.1 to 100
Cc1nn(C)c(C)c1-c1cc(OC2CN(C(=O)N3N=CC[C@H]3c3cc(F)cc(C#N)c3)C2)c(F)cn1 [Compound 47, (S)-3-fluoro-5-(1-(3-((5-fluoro-2-(1,3,5-trimethyl-1H-pyrazol-4-yl)pyridin-4-yl)oxy)azetidine-1-carbonyl)-4,5-dihydro-1H-pyrazol-5-yl)benzonitrile]	0.1 to 100
CCS(=O)(=O)c1c(C)nn(-c2cc(OC3CN(C(=O)N4N=CC[C@H]4c4cc(F)cc(C#N)c4)C3)c(F)cn2)c1C [Compound 48, (S)-3-(1-(3-((2-(4-(ethylsulfonyl)-3,5-dimethyl-1H-pyrazol-1-yl)-5-fluoropyridin-4-yl)oxy)azetidine-1-carbonyl)-4,5-dihydro-1H-pyrazol-5-yl)-5-fluorobenzonitrile]	0.1 to 100
Cc1c(N)nn(C)c1-c1cc(OC2CN(C(=O)N3N=CC[C@H]3c3cc(F)cc(C#N)c3)C2)c(F)cn1 [Compound 49, (S)-3-(1-(3-((2-(3-amino-1,4-dimethyl-1H-pyrazol-5-yl)-5-fluoropyridin-4-yl)oxy)azetidine-1-carbonyl)-4,5-dihydro-1H-pyrazol-5-yl)-5-fluoro benzonitrile]	0.1 to 100
Cc1c(Cl)nn(C)c1-c1cc(OC2CN(C(=O)N3N=CC[C@H]3c3cc(F)cc(C#N)c3)C2)c(F)cn1 [Compound 50, (S)-3-(1-(3-((2-(3-chloro-1,4-dimethyl-1H-pyrazol-5-yl)-5-fluoropyridin-4-yl)oxy)azetidine-1-carbonyl)-4,5-dihydro-1H-pyrazol-5-yl)-5-fluoro benzonitrile]	0.1 to 100
